How the values were obtained:
p38 MAPKα (MAPK14) = p38 MAPKα (MAPK14) (Homo sapiens (Human), UniProt Q16539); assay: p38 MAPKα enzyme inhibition (Method 2), Z-LYTE FRET; assay type: biochemical
Description: (§1) The enzyme inhibitory activities of compounds disclosed herein are determined by FRET using synthetic peptides labelled with both donor and acceptor fluorophores (Z-LYTE, Invitrogen Ltd., Paisley, UK).
The following two assay variants can be used for determination of p38 MAPKα inhibition.
The inhibitory activities of test compounds against the p38 MAPKα isoform (MAPK14: Invitrogen) are evaluated indirectly by determining the level of activation/phosphorylation of the down-stream molecule, MAPKAP-K2. The p38 MAPKα protein (80 ng/mL, 2.5 μL) is mixed with the test compound (2.5 μL of either 4 μg/mL, 0.4 μg/mL, 0.04 μg/mL or 0.004 μg/mL) for 2 hr at RT. […] The mixture is incubated for 1 hr at RT. Development reagent (protease, 5 μL) is added for 1 hr prior to detection in a fluorescence microplate reader (Varioskan® Flash, ThermoFisher Scientific).
This method follows the same steps as Method 1 above, but utilises a higher concentration of the p38 MAPKα protein (2.5 μL of 200 ng/mL protein instead of 2.5 μL of 80 ng/mL protein) for mixing with the test compound (tested at either 1 μg/mL, 0.1 μg/mL, 0.01 μg/mL or 0.001 μg/mL).
(§2) In all cases, the site-specific protease cleaves non-phosphorylated peptide only and eliminates the FRET signal. Phosphorylation levels of each reaction are calculated using the ratio of coumarin emission (donor) over fluorescein emission (acceptor), for which high ratios indicate high phosphorylation and low ratios indicate low phosphorylation levels.

Syk = Syk (Homo sapiens (Human), UniProt P43405); assay: Syk enzyme inhibition, Z-LYTE FRET; assay type: biochemical
Description: as §1
(§3) The relevant enzyme (3000 ng/mL or 2000 ng/mL respectively, 2.5 μL) is incubated with the test compound (either 1 μg/mL, 0.1 μg/mL, 0.01 μg/mL, or 0.001 μg/mL, 2.5 μL each) for 2 hr at RT. The FRET peptides (8 μM, 2.5 μL), and appropriate ATP solutions (2.5 μL, 800 μM for c-Src, and 60 μM ATP for Syk) are then added to the enzymes/compound mixtures and the mixture incubated for 1 hr. Development reagent (protease, 5 μL) is added for 1 hr prior to detection in a fluorescence microplate reader (Varioskan® Flash, ThermoFisher Scientific).
as §2

mitosis in PBMCs = assay: (g) Cell mitosis assay; assay type: cell-based; conditions: Homo sapiens, PBMC, 5 μg/mL
Description: Peripheral blood mononucleocytes (PBMCs) from healthy subjects are separated from whole blood (Quintiles, London, UK) using a density gradient (Histopaque®-1077, Sigma-Aldrich, Poole, UK). The PBMCs (3 million cells per sample) are subsequently treated with 2% PHA (phytohaemagglutinin, Sigma-Aldrich, Poole, UK) for 48 hr, followed by a 20 hr exposure to varying concentrations of test compounds. At 2 hr before collection, PBMCs are treated with demecolcine (0.1 μg/mL; Invitrogen, Paisley, UK) to arrest cells in metaphase. To observe mitotic cells, PBMCs are permeabilized and fixed by adding Intraprep (50 μL; Beckman Coulter, France), and stained with anti-phospho-histone 3 ([…]; #9701; Cell Signalling, Danvers, Mass.) and propidium iodide (1 mg/mL; Sigma-Aldrich, Poole, UK) as previously described (Muehlbauer P. A. and Schuler M. J., Mutation Research, 2003, 537:117-130). Fluorescence is observed using an ATTUNE flow cytometer (Invitrogen, Paisley, UK), gating for lymphocytes.

c-Src = c-Src (Homo sapiens (Human), UniProt P12931); assay: c-Src enzyme inhibition, Z-LYTE FRET; assay type: biochemical
Description: as §1
as §3, with “The inhibitory activities of compounds of the invention against c-Src and Syk enzymes (Invitrogen), are evaluated in a similar fashion to that described hereinabove. The relevant” for “The relevant”
as §2

Jurkat cells = assay: (r) Cell cytotoxicity assay; assay type: cell-based, human; conditions: 24 hours
Method in brief: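 Viability read by flow cytometry as the fraction of propidium iodide-negative cells (7.5 μg/mL PI, 15 min), relative to 1.0% DMSO control. Beforehand, 1×10^5 Jurkat cells in RPMI/10% FBS were treated 24 h at 37° C., 5% CO2 with test compound at final 20, 5 or 1 μg/mL.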

Chain of p38 MAPKα (MAPK14) (Q16539 whole entry): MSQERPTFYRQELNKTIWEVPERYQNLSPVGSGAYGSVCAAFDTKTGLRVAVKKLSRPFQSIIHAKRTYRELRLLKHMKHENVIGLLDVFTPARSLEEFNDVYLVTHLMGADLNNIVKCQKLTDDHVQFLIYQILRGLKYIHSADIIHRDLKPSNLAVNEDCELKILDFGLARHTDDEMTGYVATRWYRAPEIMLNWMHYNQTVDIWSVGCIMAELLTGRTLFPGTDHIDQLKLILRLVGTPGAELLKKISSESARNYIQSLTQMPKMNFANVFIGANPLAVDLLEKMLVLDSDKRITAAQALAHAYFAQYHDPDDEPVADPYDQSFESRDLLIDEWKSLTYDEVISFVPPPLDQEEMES
Chain of c-Src (P12931 whole entry, looked up): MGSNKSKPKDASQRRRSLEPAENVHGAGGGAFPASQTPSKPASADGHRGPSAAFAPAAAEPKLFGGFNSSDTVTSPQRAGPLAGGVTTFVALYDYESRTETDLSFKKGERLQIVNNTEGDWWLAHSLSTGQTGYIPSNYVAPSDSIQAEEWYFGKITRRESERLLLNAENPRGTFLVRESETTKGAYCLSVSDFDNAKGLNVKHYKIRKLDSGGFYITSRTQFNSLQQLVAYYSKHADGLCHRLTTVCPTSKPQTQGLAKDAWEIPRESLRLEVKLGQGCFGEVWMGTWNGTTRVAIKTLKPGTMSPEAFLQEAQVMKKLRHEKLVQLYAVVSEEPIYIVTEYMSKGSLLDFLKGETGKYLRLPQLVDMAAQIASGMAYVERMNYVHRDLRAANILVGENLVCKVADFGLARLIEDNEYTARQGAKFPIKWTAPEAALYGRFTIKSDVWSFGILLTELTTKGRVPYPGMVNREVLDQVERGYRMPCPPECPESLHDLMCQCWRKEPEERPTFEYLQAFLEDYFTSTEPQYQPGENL

Compound: COc1cc(Nc2cc(Oc3ccc(NC(=O)Nc4cc(C(C)(C)C)cc(NS(C)(=O)=O)c4OC)c4ccccc34)ccn2)ccc1C(=O)NCCN1CCOCC1 [Example 2, 4-((4-((4-(3-(5-(tert-Butyl)-2-methoxy-3-(methylsulfonamido)phenyl)ureido)naphthalen-1-yl)oxy)pyridin-2-yl)amino)-2-methoxy-N-(2-morpholinoethyl)benzamide]
- IC50 (p38 MAPKα (MAPK14)): 20 nM
- IC50 (Syk): 172 nM
- inhibition at 5 µg/mL (mitosis in PBMCs): 48%
- IC50 (c-Src): 20 nM

Compound: COc1cc(Nc2cc(Oc3ccc(NC(=O)Nc4cc(C(C)(C)C)cc(NS(C)(=O)=O)c4OC)c4ccccc34)ccn2)ccc1C(=O)NC1CCN(C)CC1 [17(j), 4-[[4-[[4-[[5-tert-butyl-3-(methanesulfonamido)-2-methoxy-phenyl]carbamoylamino]-1-naphthyl]oxy]-2-pyridyl]amino]-2-methoxy-N-(1-methyl-4-piperidyl)benzamide]
- IC50 (p38 MAPKα (MAPK14)): 21 nM
- IC50 (Syk): 39 nM
- inhibition at 5 µg/mL (mitosis in PBMCs): 85.4%
- IC50 (c-Src): 16 nM

Compound: COc1cc(Nc2cc(Oc3ccc(NC(=O)Nc4cc(C(C)(C)C)cc(NS(C)(=O)=O)c4OC)c4ccccc34)ccn2)ccc1C(=O)NCC1CCN(C)CC1 [17(ak), 4-[[4-[[4-[[5-tert-butyl-3-(methanesulfonamido)-2-methoxy-phenyl]carbamoylamino]-1-naphthyl]oxy]-2-pyridyl]amino]-2-methoxy-N-[(1-methyl-4-piperidyl)methyl]benzamide]
- IC50 (Syk): 85 nM
- inhibition at 5 µg/mL (mitosis in PBMCs): 74.7%
- % Viability at 1 μg/mL (Jurkat cells; 1 μg/mL): 99.0%
- % Viability at 5 μg/mL (Jurkat cells; 5 μg/mL): 69.5%
- % Viability at 20 μg/mL (Jurkat cells; 20 μg/mL): 0.4%
- IC50 (c-Src): 12 nM

Compound: COc1cc(Nc2cc(Oc3ccc(NC(=O)Nc4cc(C(C)(C)C)cc(NS(C)(=O)=O)c4OC)c4ccccc34)ccn2)ccc1C(=O)NCCCN1CCN(C)CC1 [17(aa), 4-[[4-[[4-[[5-tert-butyl-3-(methanesulfonamido)-2-methoxy-phenyl]carbamoylamino]-1-naphthyl]oxy]-2-pyridyl]amino]-2-methoxy-N-[3-(4-methylpiperazin-1-yl)propyl]benzamide]
- IC50 (p38 MAPKα (MAPK14)): 20 nM
- IC50 (Syk): 61 nM
- inhibition at 5 µg/mL (mitosis in PBMCs): 77.7%
- IC50 (c-Src): 24 nM

Compound: COc1cc(Nc2cc(Oc3ccc(NC(=O)Nc4cc(C(C)(C)C)cc(NS(C)(=O)=O)c4OC)c4ccccc34)ccn2)ccc1C(=O)NCCN1CCS(=O)(=O)CC1 [17(r), 4-[[4-[[4-[[5-tert-butyl-3-(methanesulfonamido)-2-methoxy-phenyl]carbamoylamino]-1-naphthyl]oxy]-2-pyridyl]amino]-N-[2-(1,1-dioxo-1,4-thiazinan-4-yl)ethyl]-2-methoxy-benzamide]
- IC50 (p38 MAPKα (MAPK14)): 119 nM
- IC50 (Syk): 102 nM
- inhibition at 5 µg/mL (mitosis in PBMCs): 36.6%
- IC50 (c-Src): 37 nM

Compound: COCCOCCOCC[S+]([O-])c1ccc(Nc2cc(Oc3ccc(NC(=O)Nc4cc(C(C)(C)C)cc(NS(C)(=O)=O)c4OC)c4ccccc34)ccn2)cc1OC (stereo not drawn) [Example 11, N-(5-(tert-Butyl)-2-methoxy-3-(3-(4-((2-((3-methoxy-4-((2-(2-(2-methoxyethoxy)ethoxy)ethyl)sulfinyl)phenyl)amino)pyridin-4-yl)oxy)naphthalen-1-yl)ureido)phenyl)methanesulfonamide]
- IC50 (p38 MAPKα (MAPK14)): 35 nM
- IC50 (Syk): 318 nM
- inhibition at 5 µg/mL (mitosis in PBMCs): 26.6%
- IC50 (c-Src): 76 nM

Compound: COc1c(NC(=O)Nc2ccc(Oc3ccnc(Nc4ccc(OCCN5CCOCC5)c(C#N)c4)c3)c3ccccc23)cc(C(C)(C)C)cc1NS(C)(=O)=O [Example 9, N-(5-(tert-Butyl)-3-(3-(4-((2-((3-cyano-4-(2-morpholinoethoxy)phenyl)amino)pyridin-4-yl)oxy)naphthalen-1-yl)ureido)-2-methoxyphenyl)methanesulfonamide]
- IC50 (p38 MAPKα (MAPK14)): 197 nM
- IC50 (Syk): > 1280 nM
- inhibition at 5 µg/mL (mitosis in PBMCs): 29.8%
- IC50 (c-Src): 316 nM

Compound: COc1cc(Nc2cc(Oc3ccc(NC(=O)Nc4cc(C(C)(C)C)cc(NS(C)(=O)=O)c4OC)c4ccccc34)ccn2)ccc1C(=O)NCCN1CCC(O)CC1 [17(m), 4-[[4-[[4-[[5-tert-butyl-3-(methanesulfonamido)-2-methoxy-phenyl]carbamoylamino]-1-naphthyl]oxy]-2-pyridyl]amino]-N-[2-(4-hydroxy-1-piperidyl)ethyl]-2-methoxy-benzamide]
- IC50 (p38 MAPKα (MAPK14)): 25 nM
- IC50 (Syk): 192 nM
- inhibition at 5 µg/mL (mitosis in PBMCs): 80.5%
- IC50 (c-Src): 19 nM

Compound: COc1cc(Nc2cc(Oc3ccc(NC(=O)Nc4cc(C(C)(C)C)cc(NS(C)(=O)=O)c4OC)c4ccccc34)ccn2)ccc1C(=O)N[C@@H](C)CN1CCOCC1 [17(v), 4-[[4-[[4-[[5-tert-butyl-3-(methanesulfonamido)-2-methoxy-phenyl]carbamoylamino]-1-naphthyl]oxy]-2-pyridyl]amino]-2-methoxy-N-[(1S)-1-methyl-2-morpholino-ethyl]benzamide]
- IC50 (p38 MAPKα (MAPK14)): 116 nM
- IC50 (Syk): 232 nM
- inhibition at 5 µg/mL (mitosis in PBMCs): 34.4%
- IC50 (c-Src): 43 nM

Compound: COCCOCCOCCNC(=O)c1ccc(Nc2cc(Oc3ccc(NC(=O)Nc4cc(C(C)(C)C)cc(C(N)=O)c4OC)c4ccccc34)ccn2)cc1OC [Example 6, 4-((4-((4-(3-(5-(tert-Butyl)-3-carbamoyl-2-methoxyphenyl)ureido)naphthalen-1-yl)oxy)pyridin-2-yl)amino)-2-methoxy-N-(2-(2-(2-methoxyethoxy)ethoxy)ethyl)benzamide]
- IC50 (p38 MAPKα (MAPK14)): 137 nM
- IC50 (Syk): 315 nM
- inhibition at 5 µg/mL (mitosis in PBMCs): 28.8%
- IC50 (c-Src): 36 nM

Compound: COc1cc(Nc2cc(Oc3ccc(NC(=O)Nc4cc(C(C)(C)C)cc(NS(C)(=O)=O)c4OC)c4ccccc34)ccn2)ccc1C(=O)NCCN1CC[S+]([O-])CC1 [Example 7, 4-((4-((4-(3-(5-(tert-Butyl)-2-methoxy-3-(methylsulfonamido)phenyl)ureido)naphthalen-1-yl)oxy)pyridin-2-yl)amino)-2-methoxy-N-(2-(1-oxidothiomorpholino)ethyl)benzamide]
- IC50 (p38 MAPKα (MAPK14)): 59 nM
- IC50 (Syk): 107 nM
- inhibition at 5 µg/mL (mitosis in PBMCs): 59.9%
- IC50 (c-Src): 21 nM

Compound: COc1cc(Nc2cc(Oc3ccc(NC(=O)Nc4cc(C(C)(C)C)cc(C(N)=O)c4OC)c4ccccc34)ccn2)ccc1C(=O)NCCN1CCOCC1 [Example 4, 4-((4-((4-(3-(5-(tert-Butyl)-3-carbamoyl-2-methoxyphenyl)ureido)naphthalen-1-yl)oxy)pyridin-2-yl)amino)-2-methoxy-N-(2-morpholinoethyl)benzamide]
- IC50 (p38 MAPKα (MAPK14)): 121 nM
- IC50 (Syk): 277 nM
- inhibition at 5 µg/mL (mitosis in PBMCs): 46.2%
- IC50 (c-Src): 37 nM

Compound: COc1cc(Nc2cc(Oc3ccc(NC(=O)Nc4cc(C(C)(C)C)cc(NS(C)(=O)=O)c4OC)c4ccccc34)ccn2)ccc1C(=O)NCCN1CCOCC1(C)C [17(k), 4-[[4-[[4-[[5-tert-butyl-3-(methanesulfonamido)-2-methoxy-phenyl]carbamoylamino]-1-naphthyl]oxy]-2-pyridyl]amino]-N-[2-(3,3-dimethylmorpholin-4-yl)ethyl]-2-methoxy-benzamide]
- IC50 (p38 MAPKα (MAPK14)): 156 nM
- IC50 (Syk): 336 nM
- inhibition at 5 µg/mL (mitosis in PBMCs): 24%
- IC50 (c-Src): 74 nM
